In patent US20240132489A1, “AROMATIC HETEROCYCLIC COMPOUND, PHARMACEUTICAL COMPOSITION, AND USE THEREOF” (GT APEIRON THERAPEUTICS LIMITED, priority 2020, published 2024):
Structures can show the parent of a compound that is named as a salt.

Assays:
[1] = target: CDK7/cyclin H/MAT1 complex (Homo sapiens (Human), UniProt P50613); assay: In vitro enzymatic inhibitory activity test, CDK7; format: biochemical; conditions: Caliper mobility shift, 180 min at 27° C.
Protocol: (§1) CDK7/CyclinH was diluted in a test buffer solution (20 mM MES PH6.75, 0.01% Tween20, 50 ug/mL BSA, 6 mM MgCl2) to obtain a corresponding enzyme solution with a 2.4× concentration. CDK2/CyclinE1 was diluted in a test buffer solution (20 mM MES PH6.75, 0.01% Tween20, 50 ug/mL BSA, 6 mM MgCl2) to obtain a corresponding enzyme solution with a 2.4× concentration. CDK9/CyclinT1 was diluted in a test buffer solution (20 mM MES PH6.75, 0.01% Tween20, 50 ug/mL BSA, 10 mM MgCl2) to obtain a corresponding enzyme solution with a 2.4× concentration. CDK12/CyclinK was diluted in a test buffer solution (80 mM MES PH6.5, 0.01% Tween20, 50 ug/mL BSA, 10 mM MgCl2) to obtain a corresponding enzyme solution with a 2.4× concentration. The compounds were dissolved in dimethyl sulfoxide (DMSO) at a concentration of 10 mM. […] 2 ul of a test compound solution was mixed with 5 ul of enzyme solution. After incubating for 10 min, 5 ul of the mixed solution of the polypeptide substrate and ATP was added. After incubating at 27° C. for 180 min, 4 uL of EDTA with a 120 mM concentration was added to each sample to stop the reaction. […] A CDK9/cyclin TI complex (8 nM) and a “5-FAM-CDK9tide” peptide substrate (2 μM, synthetic fluorophore labeled peptide having the following sequence: 5-FAM-GSRTPMY-NH2, where 5-FAM was as defined above, and NH2 represented C-terminal amide) were used for testing the CDK9 inhibition. […] A CDK2/cyclin E1 complex (0.5 nM) and the “5-FAM-CDK7tide” (2 μM) as defined above were used for testing the CDK2 inhibition.
(§2) Electrophoretic separation was performed on Caliper EZ Reader II by means of a fluorogenic substrate and a phosphorylated product to analyze the reaction mixture. Data were calculated by using GraphPad Prism version 6.0. IC50 values were adjusted by means of a nonlinear regression model using a dose-response curve.

[2] = target: CDK2/cyclin E1 complex (Homo sapiens (Human), UniProt P24941); assay: In vitro enzymatic inhibitory activity test, CDK2; format: biochemical; conditions: Caliper mobility shift, 180 min at 27° C.
Protocol: CDK7/CyclinH was diluted in a test buffer solution (20 mM MES PH6.75, 0.01% Tween20, 50 ug/mL BSA, 6 mM MgCl2) to obtain a corresponding enzyme solution with a 2.4× concentration. CDK2/CyclinE1 was diluted in a test buffer solution (20 mM MES PH6.75, 0.01% Tween20, 50 ug/mL BSA, 6 mM MgCl2) to obtain a corresponding enzyme solution with a 2.4× concentration. CDK9/CyclinT1 was diluted in a test buffer solution (20 mM MES PH6.75, 0.01% Tween20, 50 ug/mL BSA, 10 mM MgCl2) to obtain a corresponding enzyme solution with a 2.4× concentration. CDK12/CyclinK was diluted in a test buffer solution (80 mM MES PH6.5, 0.01% Tween20, 50 ug/mL BSA, 10 mM MgCl2) to obtain a corresponding enzyme solution with a 2.4× concentration. […] 2 ul of a test compound solution was mixed with 5 ul of enzyme solution. After incubating for 10 min, 5 ul of the mixed solution of the polypeptide substrate and ATP was added. After incubating at 27° C. for 180 min, 4 uL of EDTA with a 120 mM concentration was added to each sample to stop the reaction. […] A CDK9/cyclin TI complex (8 nM) and a “5-FAM-CDK9tide” peptide substrate (2 μM, synthetic fluorophore labeled peptide having the following sequence: 5-FAM-GSRTPMY-NH2, where 5-FAM was as defined above, and NH2 represented C-terminal amide) were used for testing the CDK9 inhibition. […] A CDK2/cyclin E1 complex (0.5 nM) and the “5-FAM-CDK7tide” (2 μM) as defined above were used for testing the CDK2 inhibition.
as §2

[3] = target: CDK9/CyclinT1 (Homo sapiens (Human), UniProt P50750); assay: In vitro enzymatic inhibitory activity test, CDK9; format: biochemical; conditions: Caliper mobility shift, 180 min at 27° C.
Protocol: as §1, §2

[4] = target: CDK12(aa686-1082)/cyclin K complex (Homo sapiens (Human), UniProt Q9NYV4); assay: In vitro enzymatic inhibitory activity test, CDK12; format: biochemical; conditions: Caliper mobility shift, 180 min at 27° C.
Protocol: as §1, §2

[5] = test system: HCC70 cells; assay: Cell bioactivity detection (CyQuant), HCC70; format: cell-based; conditions: human breast cancer cells HCC70, 72 hours
Protocol: (§3) Trypsinization was performed on A2780 and HCC70 cells. Cell suspensions were respectively transferred to 15 mL of centrifuge tubes and centrifuged at 800 rpm for 5 min. The supernatant was discarded. Resuspension in a fresh culture medium (RPMI 1640+10% FBS) was performed. After counting, the cells were inoculated at 2000/well in a 384-well plate (50 φL of 1640+10% FBS culture medium was added to the 2nd line and the 23rd line of the 384-well plate, and 50 μL of DPBS was added to surrounding wells). Incubation in an incubator (37° C., 5% CO2) was performed overnight.
(§4) The compound was added to the well plate the next day. The compound had the highest concentration of 10 μM and was diluted at the ratio of 1:4 to form 9 concentrations. The positive compound Paclitaxel had the highest concentration of 1 μM and was diluted at the ratio of 1:3 to form 9 concentrations. The DMSO content of each well was unified to 0.2%. A cell plate was centrifuged at 800 rpm for 30 seconds. Incubation for 72 hours in an incubator (37° C., 5% CO2) was performed. On the fourth day, a Cyquant reagent (3×) was prepared according to kit instructions. Each 384-well plate was prepared in the following proportions: DPBS: 11.568 mL, CyQuant® Direct nucleic acid stain: 72 μL, CyQuant® Direct background suppressor: 360 ILL. The plates were uniformly mixed and placed for standby application at room temperature. The cell plate was taken out and placed at room temperature to be balanced for 30 min. 25 μL of Cyquant reagent (3×) was dispensed to the cells in each well of the 384-well plates by using a Multi-drop dispenser. Incubation at 37° C. for 60 or more minutes was performed. The plates were read by Acumen (Acumen was configured to have a 488 nm excitation wavelength). IC50 results were analyzed by XLFIT5 of the IDBS company.

[6] = test system: A2780 cells; assay: Cell bioactivity detection (CyQuant), A2780; format: cell-based, human; conditions: ovarian carcinoma cells A2780, 72 hours
Protocol: as §3, §4

CDK12(aa686-1082)/cyclin K complex, sequence (Q9NYV4 686-1082, species assumed): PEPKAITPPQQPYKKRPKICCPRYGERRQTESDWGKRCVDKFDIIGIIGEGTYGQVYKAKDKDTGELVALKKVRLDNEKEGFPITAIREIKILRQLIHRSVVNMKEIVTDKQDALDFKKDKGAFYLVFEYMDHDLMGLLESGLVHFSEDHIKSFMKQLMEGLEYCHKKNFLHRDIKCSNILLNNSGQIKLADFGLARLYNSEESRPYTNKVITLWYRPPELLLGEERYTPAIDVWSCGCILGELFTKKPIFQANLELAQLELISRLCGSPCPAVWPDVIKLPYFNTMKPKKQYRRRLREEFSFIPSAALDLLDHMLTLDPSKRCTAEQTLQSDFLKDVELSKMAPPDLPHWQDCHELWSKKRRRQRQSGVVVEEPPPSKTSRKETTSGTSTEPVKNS
CDK12(aa686-1082)/cyclin K complex, sequence (O75909 whole entry partner, species assumed, the tested form may be a part): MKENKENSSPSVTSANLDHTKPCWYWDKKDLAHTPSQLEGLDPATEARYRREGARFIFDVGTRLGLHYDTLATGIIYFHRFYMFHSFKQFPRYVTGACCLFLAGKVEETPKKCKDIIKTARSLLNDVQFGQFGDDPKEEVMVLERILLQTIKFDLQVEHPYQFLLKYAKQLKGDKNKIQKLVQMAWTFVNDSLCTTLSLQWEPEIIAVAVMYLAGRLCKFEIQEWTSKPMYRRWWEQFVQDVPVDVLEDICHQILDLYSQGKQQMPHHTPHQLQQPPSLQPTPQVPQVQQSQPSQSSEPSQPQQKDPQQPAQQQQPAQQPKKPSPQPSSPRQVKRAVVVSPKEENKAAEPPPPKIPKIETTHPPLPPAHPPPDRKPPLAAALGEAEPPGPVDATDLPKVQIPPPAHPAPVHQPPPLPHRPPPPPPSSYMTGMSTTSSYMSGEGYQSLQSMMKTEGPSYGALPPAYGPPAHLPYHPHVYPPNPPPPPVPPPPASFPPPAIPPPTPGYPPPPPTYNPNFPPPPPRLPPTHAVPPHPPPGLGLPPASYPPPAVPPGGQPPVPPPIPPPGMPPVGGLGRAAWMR
CDK7/cyclin H/MAT1 complex, sequence (P50613 whole entry, species assumed): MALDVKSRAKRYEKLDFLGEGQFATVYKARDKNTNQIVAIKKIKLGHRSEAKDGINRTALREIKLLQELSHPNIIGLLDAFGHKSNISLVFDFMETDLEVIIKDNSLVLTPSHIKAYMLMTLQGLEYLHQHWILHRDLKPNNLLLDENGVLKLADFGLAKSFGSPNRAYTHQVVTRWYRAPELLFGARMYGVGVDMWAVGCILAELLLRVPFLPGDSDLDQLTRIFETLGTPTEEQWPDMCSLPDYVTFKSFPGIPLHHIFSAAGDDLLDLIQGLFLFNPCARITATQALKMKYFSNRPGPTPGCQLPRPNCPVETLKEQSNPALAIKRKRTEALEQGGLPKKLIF
CDK7/cyclin H/MAT1 complex, sequence (P51946 whole entry partner, species assumed): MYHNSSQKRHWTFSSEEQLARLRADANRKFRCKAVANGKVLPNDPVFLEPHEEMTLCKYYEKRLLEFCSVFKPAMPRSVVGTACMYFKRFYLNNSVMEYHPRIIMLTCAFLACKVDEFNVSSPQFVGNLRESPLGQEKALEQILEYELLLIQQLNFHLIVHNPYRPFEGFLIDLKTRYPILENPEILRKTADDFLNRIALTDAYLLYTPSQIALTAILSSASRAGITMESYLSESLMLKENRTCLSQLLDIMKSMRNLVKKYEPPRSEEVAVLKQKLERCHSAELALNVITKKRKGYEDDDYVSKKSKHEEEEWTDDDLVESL
CDK7/cyclin H/MAT1 complex, sequence (P51948 whole entry partner, species assumed): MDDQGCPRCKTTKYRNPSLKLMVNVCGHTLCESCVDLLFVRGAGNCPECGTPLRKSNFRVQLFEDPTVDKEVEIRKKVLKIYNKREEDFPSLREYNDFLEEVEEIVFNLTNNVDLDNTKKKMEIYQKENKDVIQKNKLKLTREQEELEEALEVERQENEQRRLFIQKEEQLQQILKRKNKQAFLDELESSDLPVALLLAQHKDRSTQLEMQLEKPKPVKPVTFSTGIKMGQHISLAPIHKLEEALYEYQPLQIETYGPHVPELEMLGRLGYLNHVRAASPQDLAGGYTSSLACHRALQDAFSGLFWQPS
CDK9/CyclinT1, sequence (P50750 whole entry, species assumed): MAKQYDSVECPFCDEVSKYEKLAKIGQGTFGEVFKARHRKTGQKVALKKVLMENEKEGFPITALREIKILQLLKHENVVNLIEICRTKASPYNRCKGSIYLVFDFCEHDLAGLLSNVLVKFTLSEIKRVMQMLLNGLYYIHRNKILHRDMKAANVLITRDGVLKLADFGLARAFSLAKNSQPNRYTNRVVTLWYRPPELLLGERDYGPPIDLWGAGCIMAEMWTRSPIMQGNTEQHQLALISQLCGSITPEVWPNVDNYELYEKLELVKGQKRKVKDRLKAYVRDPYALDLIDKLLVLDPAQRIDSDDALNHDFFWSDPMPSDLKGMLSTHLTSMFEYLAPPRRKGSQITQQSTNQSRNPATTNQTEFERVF
CDK9/CyclinT1, sequence (O60563 whole entry partner, species assumed): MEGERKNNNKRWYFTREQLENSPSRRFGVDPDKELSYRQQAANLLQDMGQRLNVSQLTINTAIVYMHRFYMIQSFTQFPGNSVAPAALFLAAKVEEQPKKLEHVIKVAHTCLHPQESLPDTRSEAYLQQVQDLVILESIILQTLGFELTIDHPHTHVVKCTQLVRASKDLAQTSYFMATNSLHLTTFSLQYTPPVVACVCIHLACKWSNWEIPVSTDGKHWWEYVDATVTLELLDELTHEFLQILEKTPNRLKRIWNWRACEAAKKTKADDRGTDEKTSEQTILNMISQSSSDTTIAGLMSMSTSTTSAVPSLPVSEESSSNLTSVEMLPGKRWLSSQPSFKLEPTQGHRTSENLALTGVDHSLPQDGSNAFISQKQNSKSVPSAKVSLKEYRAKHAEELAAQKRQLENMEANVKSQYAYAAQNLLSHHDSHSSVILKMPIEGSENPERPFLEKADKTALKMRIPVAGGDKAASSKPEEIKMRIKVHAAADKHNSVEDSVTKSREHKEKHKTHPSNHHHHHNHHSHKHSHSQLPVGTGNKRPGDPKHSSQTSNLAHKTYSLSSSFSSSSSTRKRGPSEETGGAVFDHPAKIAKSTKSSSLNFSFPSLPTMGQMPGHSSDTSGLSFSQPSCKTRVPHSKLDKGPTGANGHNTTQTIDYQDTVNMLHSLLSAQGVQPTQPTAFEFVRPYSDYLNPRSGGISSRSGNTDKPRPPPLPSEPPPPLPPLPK

Row | Structure (SMILES) | IC50 [1] | IC50 [2] | IC50 [3] | IC50 [4] | IC50 ([5]; Homo sapiens, HCC70, 72 h) | IC50 ([6]; Homo sapiens, A2780, 72 h) | IC50 [5] | IC50 [6]
1 | FC(F)(F)c1cnc(N[C@H]2CCCNC2)nc1-c1c[nH]c2nc(N3CCC4(CC3)COC4)ccc12 [Compound 15, (S)-4-(6-(2-oxa-7-azaspiro[3.5]nonan-7-yl)-1H-pyrrolo[2,3-b]pyridin-3-yl)-N-(piperidin-3-yl)-5-(trifluoromethyl)pyrimidine-2-amine] | 16.5 nM | 4.15 µM | 3.32 µM | 1120 nM | 12 nM | 10 nM | – | –
2 | C[C@H]1COCCN1c1ccc2c(-c3nc(N[C@H]4CCC5(CC5)NC4)ncc3C(F)(F)F)c[nH]c2n1 [Compound 70, (S)—N-(4-(6-((S)-3-methylmorpholinyl)-1H-pyrrol[2,3-b]pyridin-3-yl)-5-(trifluoromethyl)pyrimidin-2-yl)-4-azaspiro[2.5]octan-6-amine formate] | 41.2 nM | 37.6 µM | > 50 µM | 49000 nM | 484 nM | 146 nM | – | –
3 | FC(F)(F)c1cnc(N[C@H]2CCCNC2)nc1-c1c[nH]c2nc(N3CC4CCC3CO4)ccc12 (stereo partly drawn) [Compound 32, 4-(6-(2-oxo-5-azabicyclo[2.2.2]octan-5-yl)-1H-pyrrol[2,3-b]pyridin-3-yl)-N—((S)-piperidin-3-yl)-5-(trifluoromethyl)pyrimidine-2-amine] | 19.9 nM | 3.63 µM | 6.52 µM | 3430 nM | 24 nM | 6.3 nM | – | –
4 | FC(F)(F)c1cnc(N[C@H]2CCCNC2)nc1-c1c[nH]c2nc(C3CCOC3)ccc12 (stereo partly drawn) [Compound 29, N—((S)-piperidin-3-yl)-4-(6-(tetrahydrofuran-3-yl)-1H-pyrrol[2,3-b]pyridin-3-yl)-5-(trifluoromethyl)pyrimidine-2-amine formate] | 7.08 nM | 1.26 µM | 2.48 µM | 855 nM | 3.1 nM | 2.1 nM | – | –
5 | C[C@H]1COCCN1c1ccc2c(-c3nc(N[C@@H]4CNCC(F)(F)C4)ncc3C(F)(F)F)c[nH]c2n1 [Compound 71, N—((S)-5,5-difluoropiperidin-3-yl)-4-(6-((S)-3-methylmorpholinyl)-1H-pyrrol[2,3-b]pyridin-3-yl)-5-(trifluoromethyl)pyrimidine-2-amine] | 31.7 nM | 9.3 µM | > 50 µM | 6680 nM | – | – | 390 nM | 547 nM
6 | C[C@H]1CNC[C@@H](Nc2ncc(C(F)(F)F)c(-c3c[nH]c4nc(N5CCOC[C@@H]5C)ccc34)n2)C1 [Compound 72, 4-(6-((S)-3-methylmorpholinyl)-1H-pyrrol[2,3-b]pyridin-3-yl)-N-((3S,5R)-5-methylpiperidin-3-yl)-5-(trifluoromethyl)pyrimidine-2-amine] | 17.6 nM | 3.35 µM | 1.82 µM | 2540 nM | – | – | 21 nM | 2.8 nM
7 | N#CC1CCN(c2ccc3c(-c4nc(N[C@H]5CCCNC5)ncc4C(F)(F)F)c[nH]c3n2)CC1 [Compound 20, (S)-1-(3-(2-(piperidine-3-amino)-5-(trifluoromethyl)pyrimidin-4-yl)-1H-pyrrolo[2,3-b]pyridin-6-yl)piperidine-4-nitrile] | 8.43 nM | 3.28 µM | 2.97 µM | 765 nM | 13.7 nM | 8.3 nM | – | –
8 | FC(F)(F)c1cnc(N[C@H]2CCCNC2)nc1-c1c[nH]c2nc(C3CCCCO3)ccc12 (stereo partly drawn) [Compound 30, N—((S)-piperidin-3-yl)-4-(6-(tetrahydropyran-2-yl)-1H-pyrrolo[2,3-b]pyridin-3-yl)-5-(trifluoromethyl)pyrimidine-2-amine formate] | 10.5 nM | 3.26 µM | 9.53 µM | 2150 nM | 20 nM | 5.6 nM | – | –
9 | FC(F)(F)c1cnc(N[C@H]2CCCNC2)nc1-c1c[nH]c2nc(C3CCOCC3)ccc12 [Compound 28, (S)—N-(piperidin-3-yl)-4-(6-(tetrahydro-2H-pyran-4-yl)-1H-pyrrolo[2,3-b]pyridin-3-yl)-5-(trifluoromethyl)pyrimidine-2-amine formate] | 6.96 nM | 3.47 µM | 3.63 µM | 1100 nM | 7.7 nM | 7.8 nM | – | –
10 | CC[C@H]1COCCN1c1ccc2c(-c3nc(N[C@H]4CCCNC4)ncc3C(F)(F)F)c[nH]c2n1 [Compound 104, 4-(6-((S)-3-ethylmorpholinyl)-1H-pyrrol[2,3-b]pyridin-3-yl)-N—((S)-piperidin-3-yl)-5-(trifluoromethyl)pyrimidine-2-amine formate] | 5.85 nM | 1.55 µM | 2.75 µM | 773 nM | 4.97 nM | 5.37 nM | – | –
11 | FC(F)(F)c1cnc(N[C@H]2CCCNC2)nc1-c1c[nH]c2nc(N3CC4(CCCOC4)C3)ccc12 [Compound 17, (S)-4-(6-(6-oxa-2-azaspiro[3.5]nonan-2-yl)-1H-pyrrolo[2,3-b]pyridin-3-yl)-N-(piperidin-3-yl)-5-(trifluoromethyl)pyrimidine-2-amine] | 20 nM | 5.48 µM | 4.25 µM | 1630 nM | 102 nM | 212 nM | – | –
12 | C[C@H]1COCCN1c1ccc2c(-c3nc(N[C@@H]4CNC[C@@H](F)C4)ncc3C(F)(F)F)c[nH]c2n1 [Compound 73, N-((3S,5S)-5-fluoropyridin-3-yl)-4-(6-((S)-3-methylmorpholinyl)-1H-pyrrol[2,3-b]pyridin-3-yl)-5-(trifluoromethyl)pyrimidine-2-amine] | 11.5 nM | 4.29 µM | 3.35 µM | 3380 nM | – | – | 35 nM | 6.2 nM
